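Where inhibition never reached the appropriate level, the endpoint shown equals the highest concentration tested. Otherwise, values were interpolated linearly from a five-concentration, 48-hour dose response in 96-well plates. TGI: concentration producing complete growth inhibition.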
Key:
Test in all cases: NCI tumour cell line growth inhibition, 48 h
[1] = system: BT-549 breast
[2] = system: DU-145 prostate
[3] = system: HOP-62 NSCLC
[4] = system: HT29 colon
[5] = system: M14 melanoma
[6] = system: MALME-3M melanoma
[7] = system: NCI-H226 lung
[8] = system: NCI-H460 lung
[9] = system: NCI-H522 lung
[10] = system: SF-295 CNS
[11] = system: SK-MEL-28 melanoma
[12] = system: SK-MEL-5 melanoma
[13] = system: SW-620 colon

SMILES	TGI [1] [µM]	TGI [2] [µM]	TGI [3] [µM]	TGI [4] [µM]	TGI [5] [µM]	TGI [6] [µM]	TGI [7] [µM]	TGI [8] [µM]	TGI [9] [µM]	TGI [10] [µM]	TGI [11] [µM]	TGI [12] [µM]	TGI [13] [µM]
CC1=C(C(=O)NNC(=O)c2ccccc2O)CC(C(=O)NNC(=O)c2ccccc2O)=C(C)N1	> 100	> 93.5	> 86.2	> 100	> 76	> 100	> 41.7	> 100	> 26.7	> 100	> 100	> 100	> 100
CC1=NC(=O)CNN1C1=NNC2(C(=O)N1)c1ccccc1-c1ccccc12	> 100	> 100	> 100	> 100	> 100	> 100	> 100	> 100	> 100	> 100	> 100	> 100	> 100
CC(C)(Cl)C(Cl)CC/C(CBr)=C(\Cl)CBr (centres undefined)	3.27	20.1	4.91	25	3.22	4.83	5.28	8.21	3.09	16	4.38	3.74	3.28
CC(C)NC(=O)OCc1c(COC(=O)NC(C)C)c(-c2cc[n+](COC(=O)Cc3ccccc3)cc2)n2c1CCC2	> 100	> 100	> 100	> 100	> 100	> 100	> 100	> 100	> 100	> 100	> 100	> 100	> 100
O=C(NCCCN1CCN(CCCNC(=O)c2cc(-c3ccccc3)nc3ccccc23)CC1)c1cc(-c2ccccc2)nc2ccccc12	51.1	> 67.1	41.3	> 39.7	5.63	3.21	> 65.3	> 64.7	32	31.6	3.99	3.98	> 29.5
O=C(/C=C/c1ccc(O)c(O)c1)c1ccc(O)cc1O	14.6	18.9	42.4	33.4	34.7	28.7	37.6	36.3	8.65	50.3	30.5	26.3	35.2
Cc1cc(S(=O)(=O)Nc2nnc3c(Cl)cc(C(F)(F)F)cn23)c(S)cc1Cl	> 100	> 100	> 100	> 100	> 100	> 100	> 100	> 100	> 100	> 100	> 100	> 80.6	> 100
Clc1ccc2c(c1)CC1C[N+]3=C(CCCCC3)C1=C2 (centres undefined)	> 100	> 100	> 100	> 100	> 100	> 100	> 100	> 100	> 100	> 100	> 100	> 100	> 100
COc1ccccc1/C=C1\CCC(CN2CCOCC2)C1=O (centres undefined)	29.8	31.4	50.2	56.6	18.8	23.7	31.8	36	3.8	34.6	29.6	28.7	11.5
O=C1Nc2n[nH]c(=S)n2NC12c1ccccc1-c1ccccc12	> 100	> 100	> 100	> 100	> 100	> 100	> 100	> 100	> 100	> 100	> 100	> 100	> 100
C[C@@]12C[C@@H](c3ccccc3O1)N1CCCSC1=N2	> 100	> 100	> 100	> 100	> 100	> 100	> 100	> 100	> 100	> 100	> 100	> 100	> 100
O=c1[nH]nc(-c2ccccc2)n1-n1cccc1	> 100	> 100	> 100	> 100	> 100	> 100	> 100	> 100	> 100	> 100	> 100	> 100	> 100
O=C(OCC1CC(C2(O)CCCCC2)C(=O)O1)c1ccccc1 (centres undefined)	> 100	> 100	> 100	> 100	> 100	> 100	> 100	> 100	> 100	> 100	> 100	> 100	> 100
